Laboratory results: the NIST ThermoML archive (doi:10.1021/acs.jced.8b00524)

Assay: xn = mol fraction of the nth substance listed
Conditions: 100 kPa, Liquid; for viscosity: Concentric cylinders viscometry; for mass density: Vibrating tube method

CCCCOC(C)=O [butyl ethanoate] + CCCCCCO
Conditions | mass density [kg/m3] | viscosity [mPa·s]
293.15 K, x1 = 0.0811 | 823.6 | 4.7
293.15 K, x1 = 0.1602 | 828.4 | 4.14
293.15 K, x1 = 0.2398 | 833.3 | 3.64
293.15 K, x1 = 0.3507 | 840.1 | 3.04
293.15 K, x1 = 0.4402 | 845.7 | 2.63
293.15 K, x1 = 0.5596 | 853.1 | 2.16
293.15 K, x1 = 0.6504 | 858.9 | 1.84
293.15 K, x1 = 0.7398 | 864.5 | 1.55
293.15 K, x1 = 0.8507 | 871.6 | 1.2
293.15 K, x1 = 0.9397 | 877.2 | 0.92
293.15 K, x1 = 1 | 881.1 | 0.732
298.15 K, x1 = 0.0811 | 819.8 | 3.99
298.15 K, x1 = 0.1602 | 824.4 | 3.5
298.15 K, x1 = 0.2398 | 829.1 | 3.06
298.15 K, x1 = 0.3507 | 835.8 | 2.56
298.15 K, x1 = 0.4402 | 841.2 | 2.22
298.15 K, x1 = 0.5596 | 848.5 | 1.82
298.15 K, x1 = 0.6504 | 854 | 1.56
298.15 K, x1 = 0.7398 | 859.6 | 1.32
298.15 K, x1 = 0.8507 | 866.5 | 1.05
298.15 K, x1 = 0.9397 | 872.1 | 0.83
298.15 K, x1 = 1 | 876 | 0.677
303.15 K, x1 = 0.0811 | 815.9 | 3.41
303.15 K, x1 = 0.1602 | 820.3 | 2.99
303.15 K, x1 = 0.2398 | 824.8 | 2.61
303.15 K, x1 = 0.3507 | 831.2 | 2.18
303.15 K, x1 = 0.4402 | 836.5 | 1.89
303.15 K, x1 = 0.5596 | 843.6 | 1.56
303.15 K, x1 = 0.6504 | 849.1 | 1.34
303.15 K, x1 = 0.7398 | 854.5 | 1.15
303.15 K, x1 = 0.8507 | 861.3 | 0.93
303.15 K, x1 = 0.9397 | 866.9 | 0.76
303.15 K, x1 = 1 | 870.9 | 0.628
308.15 K, x1 = 0.0811 | 812 | 2.94
308.15 K, x1 = 0.1602 | 816.2 | 2.57
308.15 K, x1 = 0.2398 | 820.6 | 2.24
308.15 K, x1 = 0.3507 | 826.7 | 1.86
308.15 K, x1 = 0.4402 | 831.8 | 1.61
308.15 K, x1 = 0.5596 | 838.7 | 1.33
308.15 K, x1 = 0.6504 | 844 | 1.16
308.15 K, x1 = 0.7398 | 849.4 | 1
308.15 K, x1 = 0.8507 | 856.2 | 0.82
308.15 K, x1 = 0.9397 | 861.7 | 0.69
308.15 K, x1 = 1 | 865.7 | 0.585
313.15 K, x1 = 0.0811 | 808 | 2.54
313.15 K, x1 = 0.1602 | 811.9 | 2.21
313.15 K, x1 = 0.2398 | 816 | 1.93
313.15 K, x1 = 0.3507 | 821.8 | 1.61
313.15 K, x1 = 0.4402 | 826.7 | 1.41
313.15 K, x1 = 0.5596 | 833.5 | 1.18
313.15 K, x1 = 0.6504 | 838.8 | 1.04
313.15 K, x1 = 0.7398 | 844.1 | 0.92
313.15 K, x1 = 0.8507 | 850.9 | 0.76
313.15 K, x1 = 0.9397 | 856.4 | 0.63
313.15 K, x1 = 1 | 860.5 | 0.546
318.15 K, x1 = 0.0811 | 804.2 | 2.21
318.15 K, x1 = 0.1602 | 807.9 | 1.92
318.15 K, x1 = 0.2398 | 811.7 | 1.68
318.15 K, x1 = 0.3507 | 817.4 | 1.4
318.15 K, x1 = 0.4402 | 822.1 | 1.23
318.15 K, x1 = 0.5596 | 828.6 | 1.05
318.15 K, x1 = 0.6504 | 833.8 | 0.93
318.15 K, x1 = 0.7398 | 839 | 0.83
318.15 K, x1 = 0.8507 | 845.7 | 0.7
318.15 K, x1 = 0.9397 | 851.2 | 0.59
318.15 K, x1 = 1 | 855.3 | 0.512
323.15 K, x1 = 0.0811 | 800.1 | 1.96
323.15 K, x1 = 0.1602 | 803.5 | 1.71
323.15 K, x1 = 0.2398 | 807.2 | 1.49
323.15 K, x1 = 0.3507 | 812.5 | 1.25
323.15 K, x1 = 0.4402 | 817.1 | 1.09
323.15 K, x1 = 0.5596 | 823.5 | 0.93
323.15 K, x1 = 0.6504 | 828.6 | 0.83
323.15 K, x1 = 0.7398 | 833.8 | 0.75
323.15 K, x1 = 0.8507 | 840.4 | 0.65
323.15 K, x1 = 0.9397 | 846 | 0.56
323.15 K, x1 = 1 | 850.1 | 0.485

CCCCCCCCCCO [decan-1-ol] + CCCCOC(C)=O
Conditions | mass density [kg/m3] | viscosity [mPa·s]
293.15 K, x2 = 0 | 829.5 | 14.42
293.15 K, x2 = 0.0809 | 832 | 12.8
293.15 K, x2 = 0.1599 | 834.6 | 11.41
293.15 K, x2 = 0.2401 | 837.6 | 10.07
293.15 K, x2 = 0.3499 | 842 | 8.41
293.15 K, x2 = 0.4401 | 846 | 7.18
293.15 K, x2 = 0.5598 | 851.9 | 5.67
293.15 K, x2 = 0.6499 | 856.8 | 4.62
293.15 K, x2 = 0.7401 | 862.3 | 3.6
293.15 K, x2 = 0.8499 | 869.6 | 2.38
293.15 K, x2 = 0.9399 | 876.2 | 1.38
298.15 K, x2 = 0 | 826.1 | 11.8
298.15 K, x2 = 0.0809 | 828.4 | 10.44
298.15 K, x2 = 0.1599 | 830.9 | 9.29
298.15 K, x2 = 0.2401 | 833.7 | 8.2
298.15 K, x2 = 0.3499 | 838 | 6.86
298.15 K, x2 = 0.4401 | 841.8 | 5.87
298.15 K, x2 = 0.5598 | 847.5 | 4.61
298.15 K, x2 = 0.6499 | 852.3 | 3.75
298.15 K, x2 = 0.7401 | 857.5 | 2.94
298.15 K, x2 = 0.8499 | 864.7 | 1.97
298.15 K, x2 = 0.9399 | 871.1 | 1.19
303.15 K, x2 = 0 | 822.7 | 9.76
303.15 K, x2 = 0.0809 | 824.8 | 8.61
303.15 K, x2 = 0.1599 | 827.1 | 7.62
303.15 K, x2 = 0.2401 | 829.7 | 6.71
303.15 K, x2 = 0.3499 | 833.8 | 5.59
303.15 K, x2 = 0.4401 | 837.5 | 4.78
303.15 K, x2 = 0.5598 | 843 | 3.75
303.15 K, x2 = 0.6499 | 847.6 | 3.06
303.15 K, x2 = 0.7401 | 852.7 | 2.4
303.15 K, x2 = 0.8499 | 859.6 | 1.64
303.15 K, x2 = 0.9399 | 866 | 1.04
308.15 K, x2 = 0 | 819.3 | 8.14
308.15 K, x2 = 0.0809 | 821.2 | 7.15
308.15 K, x2 = 0.1599 | 823.4 | 6.31
308.15 K, x2 = 0.2401 | 825.8 | 5.54
308.15 K, x2 = 0.3499 | 829.6 | 4.61
308.15 K, x2 = 0.4401 | 833.1 | 3.93
308.15 K, x2 = 0.5598 | 838.5 | 3.11
308.15 K, x2 = 0.6499 | 842.9 | 2.54
308.15 K, x2 = 0.7401 | 847.9 | 2.02
308.15 K, x2 = 0.8499 | 854.6 | 1.4
308.15 K, x2 = 0.9399 | 860.8 | 0.9
313.15 K, x2 = 0 | 815.8 | 6.84
313.15 K, x2 = 0.0809 | 817.3 | 5.99
313.15 K, x2 = 0.1599 | 819.2 | 5.27
313.15 K, x2 = 0.2401 | 821.4 | 4.62
313.15 K, x2 = 0.3499 | 824.9 | 3.83
313.15 K, x2 = 0.4401 | 828.2 | 3.28
313.15 K, x2 = 0.5598 | 833.2 | 2.59
313.15 K, x2 = 0.6499 | 837.5 | 2.15
313.15 K, x2 = 0.7401 | 842.4 | 1.71
313.15 K, x2 = 0.8499 | 849.1 | 1.22
313.15 K, x2 = 0.9399 | 855.3 | 0.81
318.15 K, x2 = 0 | 812.4 | 5.8
318.15 K, x2 = 0.0809 | 813.7 | 5.06
318.15 K, x2 = 0.1599 | 815.3 | 4.45
318.15 K, x2 = 0.2401 | 817.2 | 3.89
318.15 K, x2 = 0.3499 | 820.3 | 3.22
318.15 K, x2 = 0.4401 | 823.4 | 2.75
318.15 K, x2 = 0.5598 | 828.2 | 2.18
318.15 K, x2 = 0.6499 | 832.4 | 1.8
318.15 K, x2 = 0.7401 | 837.2 | 1.45
318.15 K, x2 = 0.8499 | 843.9 | 1.05
318.15 K, x2 = 0.9399 | 850.2 | 0.73
323.15 K, x2 = 0 | 808.9 | 4.96
323.15 K, x2 = 0.0809 | 809.9 | 4.31
323.15 K, x2 = 0.1599 | 811.3 | 3.79
323.15 K, x2 = 0.2401 | 813 | 3.3
323.15 K, x2 = 0.3499 | 815.9 | 2.72
323.15 K, x2 = 0.4401 | 818.8 | 2.32
323.15 K, x2 = 0.5598 | 823.4 | 1.84
323.15 K, x2 = 0.6499 | 827.3 | 1.53
323.15 K, x2 = 0.7401 | 832.1 | 1.25
323.15 K, x2 = 0.8499 | 838.7 | 0.92
323.15 K, x2 = 0.9399 | 844.9 | 0.66
